Where two headings read alike, the source gives them in different places. Numbered stars: 1 amine (or outer) side, 2 acyl side, 3 side chain; on linkers, the order of the positions; unused ones are H or OH. Peptide text beside a SMILES is read from it. CO = O=C([*:1])[*:2]
Legend:
Type in all cases: biochemical, bovine
[1] = test system: PA28-inactivating protein; test: Effect of protease inhibitors on PA28-inactivating activity
Experimental: (§1) Assay for PA28-inactivating activity. The inactivation of PA28 was assessed by measuring residual PA28 activity after preincubation of purified PA28 with the inactivating protein. The preincubation contained purified bovine red blood cell PA28 (0.2 μg), 100 mM MES buffer, pH 5.2, 2 mM DTT, and inactivating protein or other factors, as described in this example, in a final volume of 15 μl. After preincubation at […] for 10 min., the reaction was stopped by addition of 1.0 ml of a solution containing 50 mM Trios-HCl, pH 8.0, 1 mM DTT, and 50 μM Suc-LeuLeu-Val-Tyr-AMC (or other proteasome substrate). […] The assays consisted of 50 mM MES buffer, pH 5.2, 1 mM DTT, 50 μM substrate, and 50 μl of column fractions in a final volume of 1.0 ml. Reactions were carried out at 30° C. and the release of free MNA (or other reporter group) was monitored directly by fluorescence. 1.0 unit of activity is defined as the increase in product concentration of 1.0 nM/min.

[2] = test system: PA28-inactivating protein; test: Effect of protease inhibitors on peptidase activity (Z-Leu-Arg-MNA hydrolysis) of PA28-inactivating protein
Experimental: as §1

[3] = test system: PA28-inactivating protein; test: Hydrolysis of synthetic peptides and proteins by PA28-inactivating protein; settings: 0.05 μg enzyme, 50 μM substrate, 50 mM MES pH 5.2, 30° C.; 1.0 unit = 1.0 nM/min product
Experimental: as §1

[4] = test system: 20S proteasome; test: Assay for PA700 activity (ATP-dependent activation of proteasome); settings: for ability of nucleotide to promote proteasome activation by PA700: in place of ATP
Experimental: Assay for PA700 activity. PA700 activity was assayed by measuring the increase in proteasome hydrolysis of the synthetic peptide Suc-Leu-Leu-Val-Tyr-AMC after preincubation of the two components in the presence of ATP. The standard preincubation solution consisted of 45 mM Tris-HCl, pH 7.5, 5 mM DTT, 60 μM ATP, 500 μM MgCl2, 0.3 μg purified proteasome, PA700 as indicated in specific experiments, and any other component as specified, in a final volume of 50 μl. This solution was preincubated at 37° C. for 45 min. The preincubation was ended by the addition of 1.0 ml of a solution containing 50 mM Tris-HCl, pH 8.0, 1 mM DTT, and 50 μM Suc-Leu-Leu-Val-Tyr-AMC. The rate of hydrolysis of the substrate was determined directly by fluorescence as described previously. Routine control assays were conducted in parallel and consisted of the complete procedure but without PA700. […] PA700 activity is defined as the increase in proteasome activity between the two conditions.

[5] = test system: PA28; test: Assay for PA28-inactivating activity (residual PA28 activity after preincubation with peptidase)
Experimental: as §1

[6] = inhibitor 2 μM, preincubated 10 min at 30° C., Z-Leu-Arg-MNA
[7] = inhibitor 1 mM, preincubated 10 min at 30° C.
[8] = inhibitor 1 mM, preincubated 10 min at 30° C., Z-Leu-Arg-MNA

With `CC(=O)N[C@@H](CC(C)C)C(=O)N[C@@H](CC(C)C)C(=O)N[C@H](C=O)CCCNC(=N)N` [Leupeptin] the “PA28-Inactivating Activity (% Inhibition)” value ([1]; inhibitor 1 μM, preincubated 10 min at 30° C.) was 100 % Inhibition, the “effect on PA28-inactivating activity of bovine liver extract” value ([1]; preliminary characterization, crude liver extract) was “inhibited” and the “effect on the purified PA28-inactivating protein (PA28-inactivating activity and Z-Leu-Arg-MNA hydrolysis), in words” value (“effect … in words” below) [2] was “inhibited the PA28-inactivating protein at concentrations in the μM range”. The “Peptidase Activity (% Inhibition)” value ([2]; inhibitor 1 μM, preincubated 10 min at 30° C., Z-Leu-Arg-MNA) was 100 % Inhibition.

In the case of `Cc1ccc(S(=O)(=O)N[C@@H](Cc2ccccc2)C(=O)CCl)cc1` [TPCK], the “PA28-Inactivating Activity (% Inhibition)” value ([1]; inhibitor 50 μM, preincubated 10 min at 30° C.) is reported as 0 % Inhibition and the “Peptidase Activity (% Inhibition)” value ([2]; inhibitor 50 μM, preincubated 10 min at 30° C., Z-Leu-Arg-MNA) is reported as 0 % Inhibition.

In the case of `COc1cc(NC(=O)[C@H](Cc2ccc(O)cc2)NC(=O)[C@H](CO)NC(=O)OCc2ccccc2)cc2ccccc12` [Z--Ser--Tyr--MNA], the “hydrolysis by PA28-inactivating protein” value [3] is reported as 0 UNITS/μg.

For `Nc1ccn([C@@H]2O[C@H](COP(=O)(O)OP(=O)(O)OP(=O)(O)O)[C@@H](O)[C@H]2O)c(=O)n1` [CTP], the “concentration required for proteasome activation by PA700 relative to ATP” value ([4]; higher than ATP) was 100 fold and the “ability of nucleotide to promote proteasome activation by PA700” value (shortened to “ability of nucleotide”) [4] was “could also activate the proteasome”.

`O=C(CNC(=O)OCc1ccccc1)NCC(=O)N[C@@H](Cc1ccccc1)C(=O)Nc1ccc2ccccc2c1` [Z--Gly--Gly--Phe--βNA] (HELM PEPTIDE1{[O=C(OCc1ccccc1)[*:2]].G.G.F.[c1ccc2cc(N[*:1])ccc2c1]}$$$$V2.0) was tested, and the “hydrolysis by PA28-inactivating protein” value [3] was 0 UNITS/μg.

For `CC(C)C[C@H](NC(=O)[C@@H](O)[C@H](N)Cc1ccccc1)C(=O)O` [Bestatin], the “Peptidase Activity (% Inhibition)” value [2, 6] was 19 % Inhibition.

In the case of `O=C(O)CI` [Iodoacetate], the “effect on PA28-inactivating activity of bovine liver extract” value [1] is reported as “inhibited”, the “PA28-Inactivating Activity (% Inhibition)” value ([1]; 10 min, 100 µM) is reported as 93 % Inhibition and the “effect … in words” value [2] is reported as “inhibited each activity”. The “Peptidase Activity (% Inhibition)” value ([2]; 10 min, 100 µM) was 83 % Inhibition.

`COc1cc(NC(=O)[C@H](Cc2ccccc2)NC(=O)[C@H](CC(C)C)NC(=O)[C@H](Cc2ccccc2)NC(=O)CCC(=O)O)cc2ccccc12` [Suc--Phe--Leu--Phe--MNA] was tested, and the “hydrolysis by PA28-inactivating protein” value [3] was 0 UNITS/μg.

In the case of `O=P(O)(O)OP(=O)(O)O` [PPi], the “ability of nucleotide” value [4] is reported as “Neither ADP, AMP, adenosine, nor PPi promoted proteasome activation”.

With `CC(C)[C@H](NC(=O)[C@H](CCCNC(=N)N)NC(=O)N[C@@H](Cc1ccccc1)C(=O)O)C(=O)N[C@H](C=O)CCCNC(=N)N` [Antipain] ({Phe-CO}-Arg-Val-Arg-aldehyde) the “PA28-Inactivating Activity (% Inhibition)” value ([1]; inhibitor 2 μM, preincubated 10 min at 30° C.) was 90 % Inhibition, the “effect … in words” value [2] was “inhibited the PA28-inactivating protein at concentrations in the μM range” and the “Peptidase Activity (% Inhibition)” value [2, 6] was 88 % Inhibition.

For `Cc1ccc(S(=O)(=O)N[C@@H](CCCCN)C(=O)CCl)cc1` [TLCK], the “Peptidase Activity (% Inhibition)” value ([2]; 10 min, 50 µM) was 88 % Inhibition.

`O=c1oc(Cl)c(Cl)c2ccccc12` [3,4-Dichloroisocoumarin, 3,4-dichloroisocoumarin] was tested, and the “PA28-Inactivating Activity (% Inhibition)” value [1, 7] was 0 % Inhibition, the “effect … in words” value [2] was “had no effect” and the “Peptidase Activity (% Inhibition)” value [2, 8] was 0 % Inhibition.

For trypsin, the “effect of peptidase or protease on PA28 activity” value (“effect of peptidase or protease” for short) [5] was “rapidly inactivated PA28”.

With `Cc1cc(=O)oc2cc(NC(=O)[C@H](Cc3ccc(O)cc3)NC(=O)CCC(=O)O)ccc12` [Suc--Tyr--AMC] the “hydrolysis by PA28-inactivating protein” value [3] was 0 UNITS/μg.

With `NCCc1ccc(S(=O)(=O)F)cc1` [Aminoethylbenzenesulfonylfluoride, aminoethylbenzenesulfonylfluoride] the “PA28-Inactivating Activity (% Inhibition)” value [1, 7] was 0 % Inhibition, the “effect … in words” value [2] was “had no effect” and the “Peptidase Activity (% Inhibition)” value [2, 8] was 0 % Inhibition.

For `Nc1ncnc2c1ncn2[C@@H]1O[C@H](COP(=O)(O)O)[C@@H](O)[C@H]1O` [AMP], the “ability of nucleotide” value [4] was “Neither ADP, AMP, adenosine, nor PPi promoted proteasome activation”.

With Chymostatin the “effect … in words” value [2] was “inhibited the PA28-inactivating protein at concentrations in the μM range” and the “Peptidase Activity (% Inhibition)” value ([2]; inhibitor 5 μM, preincubated 10 min at 30° C., Z-Leu-Arg-MNA) was 83 % Inhibition.

`Nc1ncnc2c1ncn2[C@@H]1O[C@H](CO)[C@@H](O)[C@H]1O` [adenosine] was tested, and the “ability of nucleotide” value [4] was “Neither ADP, AMP, adenosine, nor PPi promoted proteasome activation”.

`COc1cc(NC(=O)[C@H](CCCNC(=N)N)NC(=O)OCc2ccccc2)cc2ccccc12` [Z--Arg--MNA] was tested, and the “hydrolysis by PA28-inactivating protein” value [3] was 0 UNITS/μg.

`COc1cc(NC(=O)[C@H](CCCNC(=N)N)NC(=O)[C@H](CC(C)C)NC(=O)[C@@H](NC(=O)OCc2ccccc2)C(C)C)cc2ccccc12` [Z--Val--Leu--Arg--MNA, Z-Val-Leu-Arg-MNA] was tested, and the “hydrolysis by PA28-inactivating protein” value [3] was 28 UNITS/μg.

For `COc1cc(NC(=O)[C@H](CCCNC(=N)N)NC(=O)[C@H](CC(C)C)NC(=O)OCc2ccccc2)cc2ccccc12` [Z--Leu--Arg--MNA, Z-Leu-Arg-MNA], the “hydrolysis by PA28-inactivating protein” value [3] was 98 UNITS/μg.

With `COc1cc(NC(=O)[C@H](CCCCN)NC(=O)[C@H](CC(C)C)NC(=O)[C@H](CC(C)C)NC(=O)OCc2ccccc2)cc2ccccc12` [Z--Leu--Leu--Lys--MNA] the “hydrolysis by PA28-inactivating protein” value [3] was 19 UNITS/μg.

In the case of `Nc1ncnc2c1ncn2[C@@H]1O[C@H](COP(=O)(O)OP(=O)(O)O)[C@@H](O)[C@H]1O` [ADP], the “ability of nucleotide” value [4] is reported as “Neither ADP, AMP, adenosine, nor PPi promoted proteasome activation”.

With `C[C@H](NC(=O)[C@H](Cc1ccccc1)NC(=O)OCc1ccccc1)C(=O)C=[N+]=[N-]` [Z--Phe--Ala--CHN2] the “Peptidase Activity (% Inhibition)” value ([2]; inhibitor 15 μM, preincubated 10 min at 30° C., Z-Leu-Arg-MNA) was 85 % Inhibition.

`COc1cc(NC(=O)[C@H](CCCNC(=N)N)NC(=O)[C@@H]2CCCN2C(=O)CNC(=O)OCc2ccccc2)cc2ccccc12` [Z--Gly--Pro--Arg--MNA] was tested, and the “hydrolysis by PA28-inactivating protein” value [3] was 13 UNITS/μg.

For `Nc1ncnc2c1ncn2[C@@H]1O[C@H](COP(=O)(O)OP(=O)(O)OP(=O)(O)O)[C@@H](O)[C@H]1O` [ATP], the “ATP concentration for maximal proteasome activation by PA700” value [4] was “approximately 60 μM”.

B1: Carboxypeptidase Y: Carboxypeptidase Y from yeast (Boehringer, 1111914) (protein, UniProt P00729 112-532, looked up)
Carboxypeptidase Y: KIKDPKILGIDPNVTQYTGYLDVEDEDKHFFFWTFESRNDPAKDPVILWLNGGPGCSSLTGLFFELGPSSIGPDLKPIGNPYSWNSNATVIFLDQPVNVGFSYSGSSGVSNTVAAGKDVYNFLELFFDQFPEYVNKGQDFHIAGESYAGHYIPVFASEILSHKDRNFNLTSVLIGNGLTDPLTQYNYYEPMACGEGGEPSVLPSEECSAMEDSLERCLGLIESCYDSQSVWSCVPATIYCNNAQLAPYQRTGRNVYDIRKDCEGGNLCYPTLQDIDDYLNQDYVKEAVGAEVDHYESCNFDINRNFLFAGDWMKPYHTAVTDLLNQDLPILVYAGDKDFICNWLGNKAWTDVLPWKYDEEFASQKVRNWTASITDEVAGEVKSYKHFTYLRVFNGGHMVPFDVPENALSMVNEWIHGGFSL
For B1, the “effect of peptidase or protease” value [5] was “each inactivated PA28 without detectably altering its molecular weight on SDS-PAGE”.

B2: Carboxypeptidase B: Carboxypeptidase B from bovine pancreas (Sigma C7261) (protein, UniProt P00732 111-417, looked up)
Carboxypeptidase B: TTGHSYEKYNNWETIEAWTEQVASENPDLISRSAIGTTFLGNTIYLLKVGKPGSNKPAVFMDCGFHAREWISPAFCQWFVREAVRTYGREIHMTEFLDKLDFYVLPVVNIDGYIYTWTTNRMWRKTRSTRAGSSCTGTDLNRNFDAGWCSIGASNNPCSETYCGSAAESEKESKAVADFIRNHLSSIKAYLTIHSYSQMMLYPYSYDYKLPKNNVELNTLAKGAVKKLASLHGTTYTYGPGASTIYPASGGSDDWAYDQGIKYSFTFELRDKGRYGFVLPESQIQPTCEETMLAIKYVTSYVLEHLY
B2 was tested, and the “effect of peptidase or protease” value [5] was “each inactivated PA28 without detectably altering its molecular weight on SDS-PAGE”.

From patent US5847076A, “Regulators of the proteasome” (Board of Regents, The University of Texas System, priority 1993, dated 1998)
